Paper PMC5933747 (PLoS ONE, 2018)
Like-named read-outs stand apart in the source and are kept apart here.

Biological target: human NaV1.5 (Homo sapiens, UniProt Q14524)
Assay: IonWorks Quattro (IWQ) electrophysiology, human NaV1.5
Type: cell-based
[1] = human, read-out: Glu mutant IWQ IC50 NaV1.5

human NaV1.5, sequence (Q14524 whole entry): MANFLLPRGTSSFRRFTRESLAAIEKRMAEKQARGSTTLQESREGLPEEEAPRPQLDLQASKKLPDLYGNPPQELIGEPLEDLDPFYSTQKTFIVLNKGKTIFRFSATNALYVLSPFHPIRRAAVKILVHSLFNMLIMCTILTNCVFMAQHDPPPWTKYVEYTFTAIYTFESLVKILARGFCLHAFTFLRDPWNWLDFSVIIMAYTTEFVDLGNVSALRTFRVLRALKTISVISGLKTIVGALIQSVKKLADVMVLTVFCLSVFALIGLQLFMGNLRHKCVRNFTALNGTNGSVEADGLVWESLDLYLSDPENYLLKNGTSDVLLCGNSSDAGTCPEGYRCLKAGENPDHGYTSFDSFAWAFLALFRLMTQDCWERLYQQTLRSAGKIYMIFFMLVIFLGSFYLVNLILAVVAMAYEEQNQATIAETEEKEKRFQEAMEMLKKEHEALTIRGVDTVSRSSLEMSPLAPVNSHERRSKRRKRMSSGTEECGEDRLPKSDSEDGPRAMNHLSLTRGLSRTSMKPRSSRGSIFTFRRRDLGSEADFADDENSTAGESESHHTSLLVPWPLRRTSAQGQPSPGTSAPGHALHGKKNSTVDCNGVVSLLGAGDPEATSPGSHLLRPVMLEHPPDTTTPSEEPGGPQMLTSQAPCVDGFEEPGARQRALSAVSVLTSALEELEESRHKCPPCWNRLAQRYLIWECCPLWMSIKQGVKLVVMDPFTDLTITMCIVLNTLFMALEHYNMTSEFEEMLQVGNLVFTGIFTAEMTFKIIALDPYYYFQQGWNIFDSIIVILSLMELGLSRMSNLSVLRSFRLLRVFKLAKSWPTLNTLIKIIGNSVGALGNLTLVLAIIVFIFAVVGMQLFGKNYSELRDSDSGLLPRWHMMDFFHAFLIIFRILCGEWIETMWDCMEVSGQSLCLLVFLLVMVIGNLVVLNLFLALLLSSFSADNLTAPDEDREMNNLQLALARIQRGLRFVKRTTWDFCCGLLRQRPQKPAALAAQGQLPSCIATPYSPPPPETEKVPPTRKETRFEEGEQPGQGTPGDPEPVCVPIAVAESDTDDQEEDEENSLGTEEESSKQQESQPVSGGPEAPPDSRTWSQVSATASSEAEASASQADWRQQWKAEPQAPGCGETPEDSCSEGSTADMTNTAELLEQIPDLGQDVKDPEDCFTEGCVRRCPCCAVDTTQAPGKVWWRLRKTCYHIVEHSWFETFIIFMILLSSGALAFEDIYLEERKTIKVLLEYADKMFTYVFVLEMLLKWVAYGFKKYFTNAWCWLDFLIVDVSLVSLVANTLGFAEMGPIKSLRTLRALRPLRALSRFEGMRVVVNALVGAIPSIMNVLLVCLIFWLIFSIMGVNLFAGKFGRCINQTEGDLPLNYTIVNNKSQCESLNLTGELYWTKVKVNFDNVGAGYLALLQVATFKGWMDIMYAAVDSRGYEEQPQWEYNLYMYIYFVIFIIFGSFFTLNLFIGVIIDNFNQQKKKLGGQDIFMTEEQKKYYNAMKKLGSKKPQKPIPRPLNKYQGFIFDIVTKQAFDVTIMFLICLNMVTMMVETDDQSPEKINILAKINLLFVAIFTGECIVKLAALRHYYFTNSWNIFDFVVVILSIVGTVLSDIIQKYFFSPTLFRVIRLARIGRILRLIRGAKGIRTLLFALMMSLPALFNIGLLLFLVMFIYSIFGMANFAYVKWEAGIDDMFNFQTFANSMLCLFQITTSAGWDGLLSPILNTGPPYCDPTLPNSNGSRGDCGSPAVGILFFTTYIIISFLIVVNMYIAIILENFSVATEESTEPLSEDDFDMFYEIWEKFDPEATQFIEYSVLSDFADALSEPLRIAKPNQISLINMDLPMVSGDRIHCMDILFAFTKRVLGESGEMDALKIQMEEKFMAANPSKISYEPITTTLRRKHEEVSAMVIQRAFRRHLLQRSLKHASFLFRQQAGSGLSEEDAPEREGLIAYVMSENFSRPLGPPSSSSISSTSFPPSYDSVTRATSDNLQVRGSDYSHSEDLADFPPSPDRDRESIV

Structure (SMILES): CC[C@H](C)[C@H](NC(=O)[C@@H](NC(=O)[C@H](CCCCN)NC(=O)[C@H](CCCNC(=N)N)NC(=O)[C@@H]1CSSC[C@@H]2NC(=O)[C@H](C)NC(=O)[C@H](CCCNC(=N)N)NC(=O)[C@H](CCCCN)NC(=O)[C@H](CCC(=O)O)NC(=O)[C@H](CC(=O)O)NC(=O)[C@@H]3CSSC[C@H](NC(=O)[C@H](CCCNC(=N)N)NC(=O)[C@H](CC(C)C)NC(=O)CNC(=O)[C@H](CCC(=O)O)NC(=O)[C@H](CSSC[C@H](NC(=O)[C@@H](N)Cc4ccc(O)cc4)C(=O)N[C@@H](CCC(N)=O)C(=O)N[C@@H](CCCCN)C(=O)N[C@@H](Cc4c[nH]c5ccccc45)C(=O)N[C@@H](CCSC)C(=O)N[C@@H](Cc4c[nH]c5ccccc45)C(=O)N[C@@H]([C@@H](C)O)C(=O)N3)NC2=O)C(=O)N[C@@H](CCCCN)C(=O)N[C@@H](CC(C)C)C(=O)N[C@@H](Cc2c[nH]c3ccccc23)C(=O)N1)[C@@H](C)CC)C(N)=O [S11 Glu mutant]
- IC50 [1]: > 5 µM

Structure (SMILES): CC[C@H](C)[C@H](NC(=O)[C@H](CCCCN)NC(=O)[C@H](CCCNC(=N)N)NC(=O)[C@@H]1CSSC[C@@H]2NC(=O)[C@H](C)NC(=O)[C@H](CCCNC(=N)N)NC(=O)[C@H](CCCCN)NC(=O)[C@H](CO)NC(=O)[C@H](CC(=O)O)NC(=O)[C@@H]3CSSC[C@H](NC(=O)[C@H](CCCNC(=N)N)NC(=O)[C@H](CC(C)C)NC(=O)CNC(=O)[C@H](CCC(=O)O)NC(=O)[C@H](CSSC[C@H](NC(=O)[C@@H](N)Cc4ccc(O)cc4)C(=O)N[C@@H](CCC(N)=O)C(=O)N[C@@H](CCCCN)C(=O)N[C@@H](Cc4c[nH]c5ccccc45)C(=O)N[C@@H](CCSC)C(=O)N[C@@H](Cc4c[nH]c5ccccc45)C(=O)N[C@@H]([C@@H](C)O)C(=O)N3)NC2=O)C(=O)N[C@@H](CCCCN)C(=O)N[C@@H](CC(C)C)C(=O)N[C@@H](Cc2c[nH]c3ccccc23)C(=O)N1)C(=O)N[C@@H](CCC(=O)O)C(N)=O [I29 Glu mutant]
- IC50 [1]: > 5 µM

Structure (SMILES): CC[C@H](C)[C@H](NC(=O)[C@@H](NC(=O)[C@H](CCCCN)NC(=O)[C@H](CCCNC(=N)N)NC(=O)[C@@H]1CSSC[C@@H]2NC(=O)[C@H](C)NC(=O)[C@H](C)NC(=O)[C@H](CCCCN)NC(=O)[C@H](CO)NC(=O)[C@H](CC(=O)O)NC(=O)[C@@H]3CSSC[C@H](NC(=O)[C@H](CCCNC(=N)N)NC(=O)[C@H](CC(C)C)NC(=O)CNC(=O)[C@H](CCC(=O)O)NC(=O)[C@H](CSSC[C@H](NC(=O)[C@@H](N)Cc4ccc(O)cc4)C(=O)N[C@@H](CCC(N)=O)C(=O)N[C@@H](CCCCN)C(=O)N[C@@H](Cc4c[nH]c5ccccc45)C(=O)N[C@@H](CCSC)C(=O)N[C@@H](Cc4c[nH]c5ccccc45)C(=O)N[C@@H]([C@@H](C)O)C(=O)N3)NC2=O)C(=O)N[C@@H](CCCCN)C(=O)N[C@@H](CC(C)C)C(=O)N[C@@H](Cc2c[nH]c3ccccc23)C(=O)N1)[C@@H](C)CC)C(N)=O [R13 Ala mutant]
- IC50 (human, read-out: Ala mutant IWQ IC50 NaV1.5): > 5 µM

Structure (SMILES): CC[C@H](C)[C@H](NC(=O)[C@@H](NC(=O)[C@H](CCCCN)NC(=O)[C@H](CCCNC(=N)N)NC(=O)[C@@H]1CSSC[C@@H]2NC(=O)[C@H](C)NC(=O)[C@H](CCCNC(=N)N)NC(=O)[C@H](CCCCN)NC(=O)[C@H](CO)NC(=O)[C@H](CC(=O)O)NC(=O)[C@@H]3CSSC[C@H](NC(=O)[C@H](CCCNC(=N)N)NC(=O)[C@H](CC(C)C)NC(=O)CNC(=O)[C@H](C)NC(=O)[C@H](CSSC[C@H](NC(=O)[C@@H](N)Cc4ccc(O)cc4)C(=O)N[C@@H](CCC(N)=O)C(=O)N[C@@H](CCCCN)C(=O)N[C@@H](Cc4c[nH]c5ccccc45)C(=O)N[C@@H](CCSC)C(=O)N[C@@H](Cc4c[nH]c5ccccc45)C(=O)N[C@@H]([C@@H](C)O)C(=O)N3)NC2=O)C(=O)N[C@@H](CCCCN)C(=O)N[C@@H](CC(C)C)C(=O)N[C@@H](Cc2c[nH]c3ccccc23)C(=O)N1)[C@@H](C)CC)C(N)=O [E17 Ala mutant]
- IC50 (read-out: Ala mutant IWQ IC50 NaV1.5): > 5 µM
